We go through 13 compounds from ChEMBL document CHEMBL1201862, “PubChem BioAssay data set” (2004).

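Step 1: Grow cells in 96-well plates. Step 2: Expose to compound for 48 hours at 5 concentrations. Step 3: Interpolate endpoints linearly; if unreached, use highest concentration. GI50 is the concentration that inhibits growth by half.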 Activity calls are given as the source filed them. Cut-off read from the data, not from the text of the source: active = GI50 up to about 1.1 µM and inactive = higher. Some results are limits rather than exact numbers.

Test systems include OVCAR-8; RXF 393; 786-0; UO-31; EKVX; HL-60; SR; SK-MEL-28; Malme-3M; KM12; UACC-257; U-251; CCRF-CEM; OVCAR-3; HOP-62; NCI-H522; HT-29; NCI/ADR-RES.
What all share (experiment): inhibition of tumour cell growth, NCI panel, 48 h

In the case of `O=C1CCCCCCCCCCOC(=O)CCCCCCCCCCO1`, the GI50 in the test with OVCAR-8 was > 100 µM (inactive); in the test with RXF 393, > 100 µM (inactive); in the test with 786-0, > 100 µM (inactive); in the test on UO-31 it was > 100 µM (inactive); with EKVX it was > 100 µM (inactive); with HL-60, 21.8 µM (inactive). Moreover, the GI50 with SR was 44.7 µM (inactive); with SK-MEL-28, > 100 µM (inactive); in the test on Malme-3M, > 100 µM (inactive); in the test with KM12, > 100 µM (inactive); in the test on UACC-257, > 100 µM (inactive); in the test on U-251, > 100 µM (inactive). Besides, the GI50 in the test with CCRF-CEM, in the test on OVCAR-3, in the test with HOP-62, in the test with NCI-H522 and in the test on HT-29 was > 100 µM (inactive) each time.

For the compound `CC(=O)O[C@H]1CC[C@@]2(C)[C@H](CC[C@@H]3[C@@H]2CC[C@]2(C)[C@@H](c4ccc(=O)oc4)C[C@H]4O[C@]342)C1`, the GI50 was 0.509 µM (active) in the test with OVCAR-8; 0.147 µM (active) in the test on RXF 393; 0.518 µM (active) in the test on NCI/ADR-RES; 0.791 µM (active) with UO-31; 0.646 µM (active) with EKVX; 0.307 µM (active) in the test with HL-60. Moreover, the GI50 in the test with SK-MEL-28 was 2.2 µM (inactive); with Malme-3M, 0.571 µM (active); in the test on KM12, 2.36 µM (inactive); in the test with UACC-257 it was 1.06 µM (active); in the test with U-251, 1.02 µM (active); with CCRF-CEM it was 0.392 µM (active). The GI50 is 0.338 µM (active) in the test on OVCAR-3, 0.521 µM (active) in the test with HOP-62, 0.327 µM (active) with NCI-H522 and 1.77 µM (inactive) in the test with HT-29.

For the compound `CC(=O)NC1=C(C)C(=O)c2c(nc3n2CCC3OC(=O)c2ccccc2)C1=O` (stereo not drawn), the GI50 is 1.3 µM (inactive) with OVCAR-8; 3.79 µM (inactive) in the test with RXF 393; 4.3 µM (inactive) in the test with 786-0; 2.82 µM (inactive) with UO-31; 1.63 µM (inactive) with EKVX; 1.92 µM (inactive) in the test with HL-60. The GI50 in the test on SR is 2.37 µM (inactive); with SK-MEL-28 it was 1.86 µM (inactive); with Malme-3M it was 1.64 µM (inactive); with KM12 it was 2.61 µM (inactive); in the test with UACC-257 it was 1.54 µM (inactive); with U-251, 1.89 µM (inactive). The GI50 in the test on CCRF-CEM was 1.19 µM (inactive); in the test on OVCAR-3, 0.223 µM (active); in the test with HOP-62, 2.34 µM (inactive); with NCI-H522 it was 2.04 µM (inactive); with HT-29, 0.514 µM (active).

On to `Nc1ccc2c(c1)C1=NNC(=O)CC1C2` (stereo not drawn), for which the GI50 in the test with OVCAR-8, in the test on RXF 393, in the test on NCI/ADR-RES, with UO-31, in the test on EKVX and in the test on HL-60 was > 100 µM (inactive) throughout. For the same compound, the GI50 in the test with SK-MEL-28, in the test with Malme-3M, in the test on KM12, in the test with UACC-257, in the test with U-251 and with CCRF-CEM was > 100 µM (inactive) throughout. Besides, the GI50 was > 31.6 µM (inactive) with OVCAR-3, > 100 µM (inactive) in the test on HOP-62, > 100 µM (inactive) in the test on NCI-H522 and > 100 µM (inactive) in the test on HT-29.

In the case of `Cc1nc2ccccc2c(=O)n1CC(=O)O`, the GI50 with OVCAR-8, in the test on RXF 393, with NCI/ADR-RES, with UO-31, in the test with EKVX and with HL-60 was > 100 µM (inactive) each time. Besides, the GI50 in the test with SK-MEL-28, in the test with Malme-3M, in the test on KM12, in the test with UACC-257, with U-251 and with CCRF-CEM was > 100 µM (inactive) in each case. Besides, the GI50 with OVCAR-3, with HOP-62, in the test on NCI-H522 and with HT-29 was > 100 µM (inactive) throughout.

In the case of `O=C(c1ccccc1)c1cc(Cl)ccc1NCn1nnc2ccccc21`, the GI50 in the test on OVCAR-8 is > 100 µM (inactive); in the test with RXF 393, 30.3 µM (inactive); with 786-0, > 100 µM (inactive); with UO-31, 35.8 µM (inactive); in the test on EKVX it was > 100 µM (inactive); in the test on HL-60, 25.2 µM (inactive). Moreover, the GI50 was 35.6 µM (inactive) in the test with SR; 33.2 µM (inactive) in the test with KM12; 55 µM (inactive) in the test on UACC-257; 55.2 µM (inactive) in the test on U-251; 77.4 µM (inactive) with CCRF-CEM; 93.3 µM (inactive) with OVCAR-3. Besides, the GI50 is > 100 µM (inactive) in the test with HOP-62, 47.8 µM (inactive) in the test with NCI-H522 and 51.1 µM (inactive) with HT-29.

As to `O=S(O)CCCSSSCCCS(=O)O`, the GI50 with RXF 393, in the test with UO-31, in the test on EKVX, in the test on HL-60, in the test on SR and in the test with SK-MEL-28 was > 100 µM (inactive) each time. The GI50 with Malme-3M, with KM12, in the test with UACC-257, in the test with U-251, in the test with CCRF-CEM and in the test on OVCAR-3 was > 100 µM (inactive) in each case. The GI50 in the test with HOP-62, in the test with NCI-H522 and with HT-29 was > 100 µM (inactive) throughout.

`Cc1nc(N(CCO)CCO)c2sc(=S)n(-c3ccccc3)c2n1`: the GI50 in the test on OVCAR-8, in the test on UO-31, with HL-60, with SR, in the test with SK-MEL-28 and in the test with Malme-3M was > 100 µM (inactive) in each case. Further, the GI50 in the test with KM12, in the test on UACC-257, with U-251, in the test on CCRF-CEM, in the test on OVCAR-3 and with HOP-62 was > 100 µM (inactive) throughout. The GI50 in the test on NCI-H522 and in the test on HT-29 was > 100 µM (inactive) in each case.

Regarding `O=C1C2c3[nH]c4ccccc4c3C3CCSCC3C2C(=O)N1c1ccccc1` (stereo not drawn), the GI50 was > 100 µM (inactive) in the test on OVCAR-8; 25.8 µM (inactive) with RXF 393; > 100 µM (inactive) in the test with 786-0; > 100 µM (inactive) with UO-31; > 100 µM (inactive) with EKVX; > 100 µM (inactive) with HL-60. In addition, the GI50 in the test on SK-MEL-28, with Malme-3M, in the test on KM12, in the test with UACC-257, in the test on U-251 and with CCRF-CEM was > 100 µM (inactive) in each case. Moreover, the GI50 with OVCAR-3, in the test with HOP-62, in the test on NCI-H522 and in the test with HT-29 was > 100 µM (inactive) throughout.

On to `C=C1CC(OC)(C(OC)C(=O)N[C@H]2OCO[C@H]3C2O[C@H](C[C@@H](COC)OC)C(C)(C)C3OC)O[C@H](C)[C@@H]1C` (stereo partly drawn), for which the GI50 was 0.861 µM (active) with OVCAR-8; 0.995 µM (active) with RXF 393; 2.78 µM (inactive) with NCI/ADR-RES; 0.759 µM (active) in the test with UO-31; 0.412 µM (active) in the test on HL-60; 0.764 µM (active) with SK-MEL-28. Further, the GI50 in the test on KM12 was 0.603 µM (active); in the test on UACC-257, 1.1 µM (active); with U-251, 0.918 µM (active); in the test with CCRF-CEM, 0.21 µM (active); in the test with OVCAR-3 it was 0.755 µM (active); in the test with HOP-62, 1.04 µM (active). For the same compound, the GI50 in the test with HT-29 was 0.491 µM (active).

Turning to `C=C(/C=C/C=C(/CCC=C(C)C)COC(C)=O)[C@@H]1CC[C@]2([C@H](CCCO)/C(=C(/C)C=O)CC[C@]2(C)O)[C@@H]1O`, the GI50 in the test with OVCAR-8 is 22.1 µM (inactive); with RXF 393 it was 18.4 µM (inactive); in the test with UO-31, 12.7 µM (inactive); in the test on EKVX, 18.1 µM (inactive); with HL-60 it was 0.912 µM (active); in the test on SK-MEL-28, 13.7 µM (inactive). In addition, the GI50 with Malme-3M was 0.0429 µM (active); in the test on KM12, 16.2 µM (inactive); in the test with UACC-257 it was 17.7 µM (inactive); in the test with U-251, 15 µM (inactive); in the test on CCRF-CEM, 1.86 µM (inactive); in the test on NCI-H522, 17.1 µM (inactive). The GI50 in the test on HT-29 is 14.8 µM (inactive).

With `CC12CCC3C(CCC4CC(OC(=O)Cc5ccc(N(CCCl)CCCl)cc5)CCC43C)C1CCC(=O)N2` (stereo not drawn), the GI50 with OVCAR-8 is 15.8 µM (inactive); in the test with RXF 393, 14.5 µM (inactive); in the test on 786-0, 15.5 µM (inactive); in the test with UO-31, 19.7 µM (inactive); in the test with EKVX, 16.4 µM (inactive); in the test on HL-60, 4.84 µM (inactive). Also, the GI50 in the test on SR is 3.67 µM (inactive); in the test with SK-MEL-28, 17.1 µM (inactive); in the test with Malme-3M, 18.2 µM (inactive); with KM12 it was 18.2 µM (inactive); in the test on U-251, 15.1 µM (inactive); in the test on CCRF-CEM, 6.25 µM (inactive). Besides, the GI50 was 18.2 µM (inactive) in the test with OVCAR-3, 14.7 µM (inactive) in the test with NCI-H522 and 16.4 µM (inactive) in the test with HT-29.

In the case of `Cc1nc2c(nc1Cl)nc(Oc1ccc(Cl)cc1)c1ccccc12`, the GI50 is 23.9 µM (inactive) in the test on OVCAR-8; 18.6 µM (inactive) in the test with 786-0; 27 µM (inactive) in the test on UO-31; > 100 µM (inactive) in the test on EKVX; > 100 µM (inactive) in the test on SR; > 100 µM (inactive) with SK-MEL-28. The GI50 with Malme-3M was 74.3 µM (inactive); in the test with KM12, > 100 µM (inactive); in the test with UACC-257, > 100 µM (inactive); with U-251, 19.5 µM (inactive); with CCRF-CEM, > 100 µM (inactive); in the test with OVCAR-3, > 100 µM (inactive). Besides, the results for the GI50 in the test with HOP-62, in the test on NCI-H522 and with HT-29 were 28.6 µM (inactive), 50.9 µM (inactive) and > 100 µM (inactive), respectively.
